Measurements: patent publication US12594276B2, “Inhibitors of human immunodeficiency virus replication” (ViiV Healthcare UK (No.5) Limited, priority 2024, dated 2026)
Read-outs that look alike come from different tables or passages of the source.

Tests used:
[1] = tested on: recombinant NL4-3 virus (nef section replaced with Renilla luciferase gene) in MT-2 cells; assay: HIV cell culture assay (antiviral activity, luciferase readout); format: cell-based; settings: Renilla, NL43, MT-2 cells infected for 4-5 days with recombinant NL4-3 Renilla luciferase virus
Procedure, shortened: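 293T transfection → virus harvest at 2-3 d → titer in MT-2 by luciferase. MT-2 + virus + serial cpd dilutions, 4-5 d. Live-cell luciferase read; EC50 by median effect fit.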

[2] = Compound cytotoxicity, XTT-based colorimetric assay; format: cell-based; settings: human
Procedure, shortened: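 CC50 derived from XTT colorimetric signal measured on day 4 in MT2 cells that were not infected. All other steps followed the antiviral assay protocol.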

[3] = uninfected MT2 cells, day 4, XTT, read-out: CC50

Structure (SMILES) | EC50 [1] [nM] | CC50 at 4 days [2, 3] [nM] | CC50 at 4 days [2] [nM]
Cc1cc(C2CCC(F)(F)CC2)nc2nc([C@H](Cc3cc(F)cc(F)c3)NC(=O)Cn3nc(C(F)F)c4c3C(F)(F)[C@@H]3C[C@H]43)n(-c3ccc(Cl)c4c(NS(C)(=O)=O)nn(CCN5CCC(F)CC5)c34)c(=O)c12 (atropisomer, axis not shown; (P)) [Example 270, N-[(1S)-1-[(3P)-3-{4-chloro-1-[2-(4-fluoropiperidin-1-yl)ethyl]-3-methanesulfonamido-1H-indazol-7-yl}-7-(4,4-difluorocyclohexyl)-5-methyl-4-oxo-3H,4H-pyrido[2,3-d]pyrimidin-2-yl]-2-(3,5-difluorophenyl)ethyl]-2-[(2S,4R)-9-(difluoromethyl)-5,5-difluoro-7,8-diazatricyclo[4.3.0.0^2,^4]nona-1(6),8-dien-7-yl]acetamide] | 0.011 | > 50 | –
CS(=O)(=O)Nc1nn(CCN2C[C@H](F)C[C@H](F)C2)c2c(-n3c([C@H](Cc4cc(F)cc(F)c4)NC(=O)Cn4nc(C5CC5)c5c4C[C@@H]4C[C@H]54)nc4nc(C5CCC(F)(F)CC5)cc(C(F)F)c4c3=O)ccc(Cl)c12 (atropisomer, axis not shown; (P)) [Example 287, N-[(1S)-1-[(3P)-3-(4-chloro-1-{2-[(3R,5S)-3,5-difluoropiperidin-1-yl]ethyl}-3-methanesulfonamido-1H-indazol-7-yl)-7-(4,4-difluorocyclohexyl)-5-(difluoromethyl)-4-oxo-3H,4H-pyrido[2,3-d]pyrimidin-2-yl]-2-(3,5-difluorophenyl)ethyl]-2-[(2S,4S)-9-cyclopropyl-7,8-diazatricyclo[4.3.0.0^2,^4]nona-1(6),8-dien-7-yl]acetamide] | 0.01 | > 50 | –
Cc1cc(C2CCC(F)(F)CC2)nc2nc([C@H](Cc3cc(F)cc(F)c3)NC(=O)Cn3nc(C4CC4)c4c3C[C@@H]3C[C@H]43)n(-c3ccc(Cl)c4c(NS(C)(=O)=O)nn(CCN5C[C@@H](C)OC(C)(C)C5)c34)c(=O)c12 (atropisomer, axis not shown; (P)) [Example 459, N-[(1S)-1-[(3P)-3-(4-chloro-3-methanesulfonamido-1-{2-[(6R)-2,2,6-trimethylmorpholin-4-yl]ethyl}-1H-indazol-7-yl)-7-(4,4-difluorocyclohexyl)-5-methyl-4-oxo-3H,4H-pyrido[2,3-d]pyrimidin-2-yl]-2-(3,5-difluorophenyl)ethyl]-2-[(2S,4S)-9-cyclopropyl-7,8-diazatricyclo[4.3.0.0^2,^4]nona-1(6),8-dien-7-yl]acetamide] | 0.005 | > 20 | –
CCc1cc(C2CCC(F)(F)CC2)nc2nc([C@H](Cc3cc(F)cc(F)c3)NC(=O)Cn3nc(C(F)F)c4c3C(F)(F)[C@@H]3C[C@H]43)n(-c3ccc(Cl)c4c(NS(C)(=O)=O)nn(CCCOC)c34)c(=O)c12 (atropisomer, axis not shown; (P)) [Example 638, N-[(1S)-1-[(3P)-3-[4-chloro-3-methanesulfonamido-1-(3-methoxypropyl)-1H-indazol-7-yl]-7-(4,4-difluorocyclohexyl)-5-ethyl-4-oxo-3H,4H-pyrido[2,3-d]pyrimidin-2-yl]-2-(3,5-difluorophenyl)ethyl]-2-[(2S,4R)-9-(difluoromethyl)-5,5-difluoro-7,8-diazatricyclo[4.3.0.0^2,^4]nona-1(6),8-dien-7-yl]acetamide] | 0.018 | > 50 | –
Cc1cc(C2(F)CCC(F)(F)CC2)nc2nc([C@H](Cc3cc(F)cc(F)c3)NC(=O)Cn3nc(C(F)F)c4c3C(F)(F)[C@@H]3C[C@H]43)n(-c3ccc(Cl)c4c(NS(C)(=O)=O)nn(CCN5CC6CC(C5)O6)c34)c(=O)c12 [Example 588, N-[(1S)-1-[(3P)-3-[4-chloro-3-methanesulfonamido-1-(2-{6-oxa-3-azabicyclo[3.1.1]heptan-3-yl}ethyl)-1H-indazol-7-yl]-5-methyl-4-oxo-7-(1,4,4-trifluorocyclohexyl)-3H,4H-pyrido[2,3-d]pyrimidin-2-yl]-2-(3,5-difluorophenyl)ethyl]-2-[(2S,4R)-9-(difluoromethyl)-5,5-difluoro-7,8-diazatricyclo[4.3.0.0^2,^4]nona-1(6),8-dien-7-yl]acetamide] | 0.008 | – | > 20
C[C@H](Cn1nc(NS(C)(=O)=O)c2c(Cl)ccc(-n3c([C@H](Cc4cc(F)cc(F)c4)NC(=O)Cn4nc(C(F)F)c5c4C(F)(F)[C@@H]4C[C@H]54)nc4nc(C5CCC(F)(F)CC5)cc(C5CC5)c4c3=O)c21)N1C[C@H](F)C[C@H](F)C1 (atropisomer, axis not shown; (P)) [Example 684, N-[(1S)-1-[(3P)-3-{4-chloro-1-[(2R)-2-[(3R,5S)-3,5-difluoropiperidin-1-yl]propyl]-3-methanesulfonamido-1H-indazol-7-yl}-5-cyclopropyl-7-(4,4-difluorocyclohexyl)-4-oxo-3H,4H-pyrido[2,3-d]pyrimidin-2-yl]-2-(3,5-difluorophenyl)ethyl]-2-[(2S,4R)-9-(difluoromethyl)-5,5-difluoro-7,8-diazatricyclo[4.3.0.0^2,^4]nona-1(6),8-dien-7-yl]acetamide] | 0.014 | > 20 | –
COCCCn1nc(NS(C)(=O)=O)c2c(Cl)ccc(-n3c([C@H](Cc4cc(F)cc(F)c4)NC(=O)Cn4nc(C(F)F)c5c4C(F)(F)[C@@H]4C[C@H]54)nc4nc(C5CCC(F)(F)CC5)cc(NCC(C)(C)N5CCOCC5)c4c3=O)c21 (atropisomer, axis not shown; (P)) [Example 546, N-[(1S)-1-[(3P)-3-[4-chloro-3-methanesulfonamido-1-(3-methoxypropyl)-1H-indazol-7-yl]-7-(4,4-difluorocyclohexyl)-5-{[2-methyl-2-(morpholin-4-yl)propyl]amino}-4-oxo-3H,4H-pyrido[2,3-d]pyrimidin-2-yl]-2-(3,5-difluorophenyl)ethyl]-2-[(2S,4R)-9-(difluoromethyl)-5,5-difluoro-7,8-diazatricyclo[4.3.0.0^2,^4]nona-1(6),8-dien-7-yl]acetamide] | 0.017 | > 20 | –
Cc1cc(C2CCC(F)(F)CC2)nc2nc([C@H](Cc3cc(F)cc(F)c3)NC(=O)Cn3nc(C4CC4)c4c3C[C@@H]3C[C@H]43)n(-c3ccc(Cl)c4c(NS(C)(=O)=O)nn([C@@H](C)CN5CC(C)(C)OC(C)(C)C5)c34)c(=O)c12 (relative stereo) [Example 724, N-[(1S)-1-[(3P)-3-{4-chloro-3-methanesulfonamido-1-[(2S)-1-(2,2,6,6-tetramethylmorpholin-4-yl)propan-2-yl]-1H-indazol-7-yl}-7-(4,4-difluorocyclohexyl)-5-methyl-4-oxo-3H,4H-pyrido[2,3-d]pyrimidin-2-yl]-2-(3,5-difluorophenyl)ethyl]-2-[(2R*,4R*)-9-cyclopropyl-7,8-diazatricyclo[4.3.0.0^2,^4]nona-1(6),8-dien-7-yl]acetamide] | 0.036 | > 20 | –
C[C@@H]1CN(CCn2nc(NS(C)(=O)=O)c3c(Cl)ccc(-n4c([C@H](Cc5cc(F)cc(F)c5)NC(=O)Cn5nc(C6CC6)c6c5C[C@@H]5C[C@H]65)nc5nc(C6CCC(F)(F)CC6)cc(C6CC6)c5c4=O)c32)C[C@H](C)O1 (atropisomer, axis not shown; (P)) [Example 324, N-[(1S)-1-[(3P)-3-(4-chloro-1-{2-[(2R,6S)-2,6-dimethylmorpholin-4-yl]ethyl}-3-methanesulfonamido-1H-indazol-7-yl)-5-cyclopropyl-7-(4,4-difluorocyclohexyl)-4-oxo-3H,4H-pyrido[2,3-d]pyrimidin-2-yl]-2-(3,5-difluorophenyl)ethyl]-2-[(2S,4S)-9-cyclopropyl-7,8-diazatricyclo[4.3.0.0^2,^4]nona-1(6),8-dien-7-yl]acetamide] | 0.014 | > 50 | –
Cc1cc(C2CCC(F)(F)CC2)nc2nc([C@H](Cc3cc(F)cc(F)c3)NC(=O)Cn3nc(C(F)F)c4c3C(F)(F)[C@@H]3C[C@H]43)n(-c3ccc(Cl)c4c(NS(C)(=O)=O)nn(CC(=O)N5C[C@H]6C[C@H]6C5)c34)c(=O)c12 (atropisomer, axis not shown; (P)) [Example 409, N-[(1S)-1-[(3P)-3-(1-{2-[(1R,5S)-3-azabicyclo[3.1.0]hexan-3-yl]-2-oxoethyl}-4-chloro-3-methanesulfonamido-1H-indazol-7-yl)-7-(4,4-difluorocyclohexyl)-5-methyl-4-oxo-3H,4H-pyrido[2,3-d]pyrimidin-2-yl]-2-(3,5-difluorophenyl)ethyl]-2-[(2S,4R)-9-(difluoromethyl)-5,5-difluoro-7,8-diazatricyclo[4.3.0.0^2,^4]nona-1(6),8-dien-7-yl]acetamide] | 0.014 | > 20 | –
CS(=O)(=O)Nc1nn(CCN2CCCC(F)(F)C2)c2c(-n3c([C@H](Cc4cc(F)cc(F)c4)NC(=O)Cn4nc(C(F)F)c5c4C(F)(F)[C@@H]4C[C@H]54)nc4nc(C5CCC(F)(F)CC5)cc(C(F)F)c4c3=O)ccc(Cl)c12 (atropisomer, axis not shown; (P)) [Example 292, N-[(1S)-1-[(3P)-3-{4-chloro-1-[2-(3,3-difluoropiperidin-1-yl)ethyl]-3-methanesulfonamido-1H-indazol-7-yl}-7-(4,4-difluorocyclohexyl)-5-(difluoromethyl)-4-oxo-3H,4H-pyrido[2,3-d]pyrimidin-2-yl]-2-(3,5-difluorophenyl)ethyl]-2-[(2S,4R)-9-(difluoromethyl)-5,5-difluoro-7,8-diazatricyclo[4.3.0.0^2,^4]nona-1(6),8-dien-7-yl]acetamide] | 0.016 | > 50 | –
